According to publication PMC6154605, “Multi-Anti-Parasitic Activity of Arylidene Ketones and Thiazolidene Hydrazines against Trypanosoma cruzi and Leishmania spp” (Molecules : A Journal of Synthetic Chemistry and Natural …, 2017):
Like-named read-outs stand apart in the source and are kept apart here.

Legend:
[1] = system: J774.1 murine macrophages; details: read-out: IC50 ± SD Murine Macrophages, cited from earlier work
[2] = system: T. cruzi epimastigotes, Tulahuen 2 strain (genotype TcVI); details: read-out: IC50 ± SD Epimastigotes T. cruzi; cited from earlier work
[3] = system: T. cruzi epimastigotes, Tulahuen 2 strain (genotype TcVI); experiment: In vitro anti-T. cruzi activity, growth inhibition of epimastigotes; assay type: cell-based, Trypanosoma cruzi; details: ratio IC50 mammalian cell / IC50 parasite (epimastigotes)
Protocol: For the in vitro anti-T. cruzi activity, we used epimastigotes of the Tulahuen 2 strain (genotype TcVI) grown in an axenic milieu (BHI-Tryptose). Cells from a 5–7-day-old culture were inoculated in fresh culture milieu to give an initial concentration of 1.00 × 10^6 cells/mL. The absorbance at 600 nm of the cells in culture was measured every day. At Day 5, the milieu was inoculated with different quantities of the compounds from a stock solution in DMSO (DMSO concentration in the culture milieu never exceeded 0.4%). The control was made in the presence of 0.4% DMSO and in the absence of compounds. Each concentration of compound was evaluated in duplicate. At Day 5, the absorbance of the culture was measured and related to the control. […] Each antiproliferative experiment was done in duplicate, and each concentration was tested in triplicate.

[4] = system: L. braziliensis promastigotes; experiment: Leishmanicidal activity on promastigotes, resazurin; assay type: cell-based, Leishmania braziliensis; details: for SI NCTC/ L. braziliensis: ratio IC50 mammalian cell / IC50 parasite (promastigotes)
Procedure, shortened: (§1)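 Promastigotes (2 × 10^6/well) in Schneider's medium with 20% FBS treated with compound dilutions for 48 h at 26 °C. Resazurin reduction read at 570 and 600 nm; IC50 from duplicate experiments, triplicate concentrations.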

[5] = system: L. braziliensis promastigotes; parameters: method as in PMID 24749923; details: footnote c; read-out: IC50 ± SD Promastigotes L. braziliensis; cited from earlier work
[6] = system: L. infantum promastigotes; parameters: method as in PMID 11913540; details: superscript b printed; previously reported compound; read-out: IC50 ± SD Promastigotes L. infantum; cited from earlier work
[7] = biological target: T1, LmTIM (triosephosphate isomerase from Leishmania mexicana) (Leishmania mexicana, UniProt P48499); experiment: Inhibition of triosephosphate isomerase; assay type: biochemical; details: read-out: Percentage of Inhibition LmTIM
T1 construct: made in house; host or cells: Escherichia coli
T1 sequence (P48499 whole entry): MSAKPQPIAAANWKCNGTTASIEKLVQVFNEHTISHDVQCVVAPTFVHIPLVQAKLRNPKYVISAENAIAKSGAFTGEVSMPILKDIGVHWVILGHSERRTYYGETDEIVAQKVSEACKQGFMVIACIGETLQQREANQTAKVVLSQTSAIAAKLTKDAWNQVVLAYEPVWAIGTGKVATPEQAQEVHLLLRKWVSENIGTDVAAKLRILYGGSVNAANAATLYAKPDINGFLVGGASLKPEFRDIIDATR
Protocol: Compounds were dissolved in DMSO. […] The experiments were performed in triplicate.

T. cruzi = details: 100 mg/kg body weight in mice, acute model; cited from earlier work
NCTC929 fibroblasts = experiment: Nonspecific cytotoxicity on fibroblasts, resazurin; assay type: cell-based; details: NCTC-929, 24 h; read-out: IC50 ± SD Fibroblast NCTC929
Procedure, shortened: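 NCTC929 murine fibroblasts seeded 3.00 × 10^4 cells/well, grown overnight, then exposed to compounds for 24 h at 37 °C, 5% CO2. Viability read by resazurin reduction (3 h), dual-wavelength absorbance at 490 and 595 nm with background subtracted. Each concentration tested three times.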

zebrafish embryos = experiment: Zebrafish embryo toxicity test (LD50)
Protocol: […] Only embryos that were clearly undamaged after 60 min of observation were kept and subsequently used. Dechorionated embryos were further manipulated using flame-rounded tip glass Pasteur pipettes. […] In all cases, the embryos were incubated in system water with 1% DMSO (negative control) and the compound at different doses between 8 and 96 hpf. The treatment solution was changed daily. […] At selected time points, namely 24, 48, 72 and 96 hpf, embryotoxicity (= mortality) and morphological characteristics of the embryos were evaluated using a Nikon SMZ800 stereomicroscope. The embryos were evaluated for the presence and morphological development (as appropriate) of somites, tail detachment, eyes, heart beat and blood circulation. All individuals were evaluated at all time points.

T. cruzi amastigotes = system: T. cruzi amastigotes; parameters: method as in PMID 26492824, PMID 24749923, doi:10.1039/C6RA27851E; details: 5 µM, 72 h; cited from earlier work
[8] = system: L. infantum promastigotes; experiment: Leishmanicidal activity on promastigotes, resazurin; assay type: cell-based, Leishmania infantum
Procedure, shortened: as §1

cruzipain = cruzipain (Trypanosoma cruzi, UniProt P25779); experiment: Inhibition of T. cruzi cruzipain; assay type: biochemical
cruzipain, sequence (P25779 123-467): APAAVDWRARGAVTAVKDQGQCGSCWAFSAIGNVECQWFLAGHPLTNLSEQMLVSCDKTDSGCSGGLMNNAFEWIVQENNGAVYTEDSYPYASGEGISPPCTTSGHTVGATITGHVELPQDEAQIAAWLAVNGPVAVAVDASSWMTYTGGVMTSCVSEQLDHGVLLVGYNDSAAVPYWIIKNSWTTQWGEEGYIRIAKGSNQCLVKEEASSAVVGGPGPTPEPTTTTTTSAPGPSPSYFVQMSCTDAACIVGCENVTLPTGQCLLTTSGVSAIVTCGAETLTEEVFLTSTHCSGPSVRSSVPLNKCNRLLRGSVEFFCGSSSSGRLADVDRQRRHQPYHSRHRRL
Protocol: Cruzipain was purified to homogeneity from epimastigotes of the Tulahuen 2 strain by ConA–Sepharose affinity chromatography, as previously described. Cruzipain (2.5 μM ε = 58,285 M^−1cm^−1) was incubated in 50 mM acetate buffer pH 5.5 with 5 mM DTT, and 100 μM inhibitor were added, shaking the solution for 15 min at 27 °C. The derivatives were added as solutions in DMSO, and the controls contained the same solvent concentration. The concentration of DMSO never exceeded 1% in the reaction medium. L-leucylam-ido(4-guanidino)butane (E-64) was used as a positive control of inhibition. Then, the fluorogenic substrate Z-Phe-Arg 7-amido-4-methylcoumarin hydrochloride (Z-Phe-Arg-AMC) at 10 μM was added, and the fluorescence was measured during 10 min at intervals of 3 s (excitation at 380 nm and emission at 460 nm) using a Varioskan Flash Spectrophotometer. From the slope of the negative control, we calculated the total (100%) enzyme activity, while the slopes obtained in the presence of the compounds yielded the percentage of remaining enzyme activity. The percentage of enzyme inhibition was determined as […]. The experiments were done in duplicate.

[9] = biological target: triosephosphate isomerase from T. cruzi (TcTIM) (Trypanosoma cruzi, UniProt P52270); experiment: Inhibition of triosephosphate isomerase; details: read-out: Percentage of Inhibition TcTIM
triosephosphate isomerase from T. cruzi (TcTIM), sequence (P52270 whole entry): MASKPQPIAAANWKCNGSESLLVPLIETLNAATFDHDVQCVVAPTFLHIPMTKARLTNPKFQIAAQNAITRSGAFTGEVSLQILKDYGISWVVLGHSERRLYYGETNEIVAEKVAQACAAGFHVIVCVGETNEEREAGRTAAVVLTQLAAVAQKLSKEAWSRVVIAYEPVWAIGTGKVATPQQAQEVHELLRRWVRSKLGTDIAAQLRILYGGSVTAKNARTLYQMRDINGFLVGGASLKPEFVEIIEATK
Protocol: Expression and purification of proteins: TcTIM, LmTIM and HsTIM were expressed in Escherichia coli and purified as described in the literature [39]. […] Before use, extensive dialysis against 100 mM triethanolamine/10 mM EDTA (pH 7.4) was performed.
Enzymatic activity assays: Enzymatic activity was determined following the conversion of glyceraldehyde 3-phosphate into dihydroxyacetone phosphate. […] The reaction mixture (1 mL, pH 7.4) contained 100 mM triethanolamine, 10 mM EDTA, 0.2 mM NADH, 1 mM glyceraldehyde 3-phosphate and 0.9 units of α-glycerol phosphate dehydrogenase. The reaction was initiated by the addition of 5 ng/mL of the TcTIM.
The mixture also contained the compounds at the indicated concentrations. Compounds were dissolved in DMSO. After 2 h, 10 µL was withdrawn and added to a final volume of 100 µL of the reaction mixture for the activity assay. The inhibition assay was performed in a 96-well microplate Varioskan spectrophotometer. […] The experiments were performed in triplicate.

Compound | IC50 [1] | IC50 [2] | SI J774.1/ T. cruzi [3] | SI NCTC/ L. braziliensis [4] | IC50 [5] | IC50 [6] | IC50 ([1]; J774.1) | inhibition at 100 µM [7] | Reduction of the parasitemia (T. cruzi) | IC50 (NCTC929 fibroblasts) | LD50 without chorion (zebrafish embryos; dechorionated zebrafish embryos, 72 h incubation) | LD50 with chorion (zebrafish embryos; zebrafish embryos with chorion) | IC50 ([4]; Leishmania braziliensis, 48 h, read-out: IC50 ± SD Promastigotes L. braziliensis) | Amastigotes in infected Vero cell culture after treatment (T. cruzi amastigotes) | IC50 ([8]; Leishmania infantum, 48 h, read-out: IC50 ± SD Promastigotes L. infantum) | SI NCTC/ L. infantum ([8]; ratio IC50 mammalian cell / IC50 parasite (promastigotes)) | inhibition at 100 µM (cruzipain; at 100 µM, read-out: Percentage of Inhibition Cruzipain) | IC50 (cruzipain; pool of cruzipain isoforms obtained from T. cruzi, read-out: IC50 ± SD Cruzipain) | inhibition at 100 µM [9]
O=C1/C(=C/c2cccc3cnccc23)CC/C1=C\c1cccc2cnccc12 [Comp13, reference compound] | 21 ± 5 µM | 31 ± 2 µM | 1 | 23 | 0.9 ± 0.2 µM | – | – | – | – | – | – | – | – | – | – | – | – | – | –
COc1cc(/C=C/C(=O)CC(=O)/C=C/c2ccc(O)c(OC)c2)ccc1O [Curcumin, reference compound] | 10 ± 2 µM | 5.6 ± 1 µM | 2 | 2 | – | 5.9 ± 0.3 µM | – | – | – | – | – | – | – | – | – | – | – | – | –
C=CCn1c(C(=O)N2CCN(C/C=C/c3ccccc3)CC2)cs\c1=N/N=C/C=C/c1ccco1 [HIT1] | – | 3.1 ± 0.2 µM | 10 | 29 | – | – | 30 ± 5 µM | 0% | 70% | 346 ± 9 µM | 61 ± 2 µM | > 100 µM | 12 ± 5 µM | cytosol without amastigotes | 4 ± 1 µM | 87 | 100% | 4.3 µM | 0%
